Laboratory results from patent US6358885B1, “Substituted phenylheterocyclic herbicides” (Mississippi State University, priority 1992, dated 2002).

Tests used:
wild oat = test: Test B preemergence/postemergence greenhouse plant response rating 0 to 10; assay type: in vivo, Avena fatua; settings: POSTEMERGENCE, 0 to 10 scale
Procedure, shortened: (§1)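 Planted seeds are treated preemergence with compound dissolved in a non-phytotoxic solvent, while postemergence applications go onto plants of two to eighteen cm. Plants stay in the greenhouse twelve to sixteen days and are then rated visually relative to controls.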

cocklebur = test: as above; assay type: in vivo, Xanthium pensylvanicum; settings: for Plant response rating, Cocklebur: 0 to 10 scale
Procedure, shortened: as §1

blackgrass [1] = test: as above; assay type: in vivo, Alopecurus myosuroides; settings: for Plant response rating, Blackgrass: 0 to 10 scale
Procedure, shortened: as §1

sugar beet = test: as above; assay type: in vivo, Beta vulgaris; settings: 0 to 10 scale
Procedure, shortened: as §1

blackgrass [2] = test: Test C preemergence/postemergence greenhouse plant response rating 0 to 100; assay type: in vivo, Alopecurus myosuroides; settings: POSTEMERGENCE
Procedure, shortened: (§2)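 Compounds in non-phytotoxic solvent applied preemergence to sandy loam one day after planting, postemergence at the 1–4 leaf stage, or to ~2.5 cm floodwater over silt loam.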

barnyardgrass = test: Test C flood test plant response rating 0 to 100; assay type: in vivo, Echinochloa crus-galli
Procedure, shortened: as §2

ryegrass = test: Test C preemergence/postemergence greenhouse plant response rating 0 to 100; assay type: in vivo, Lolium multiflorum; settings: POSTEMERGENCE
Procedure, shortened: as §2

cotton = test: as above; assay type: in vivo, Gossypium hirsutum; settings: POSTEMERGENCE
Procedure, shortened: as §2

morningglory = test: Test B preemergence/postemergence greenhouse plant response rating 0 to 10; assay type: in vivo, Ipomoea hederacea; settings: 0 to 10 scale
Procedure, shortened: as §1

bedstraw = test: as above; assay type: in vivo, Galium aparine; settings: POSTEMERGENCE
Procedure, shortened: as §1

pigweed = test: Test C preemergence/postemergence greenhouse plant response rating 0 to 100; assay type: in vivo, Amaranthusretroflexus; settings: POSTEMERGENCE
Procedure, shortened: as §2

sandbur = test: Test G preemergence/postemergence greenhouse plant response rating 0 to 100; assay type: in vivo, Cenchrus echinatus; settings: 0 to 100 scale
Procedure, shortened: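 Scoring: visual injury at 13 to 21 days post-application, compared with untreated controls. Planting: one species per pot in greenhouse medium. Dosing: compound in non-phytotoxic solvent, within one day of sowing for preemergence or at 2–4 leaves for postemergence.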

wheat = test: Test C preemergence/postemergence greenhouse plant response rating 0 to 100; assay type: in vivo, Triticum aestivum; settings: POSTEMERGENCE
Procedure, shortened: as §2

SMILES: CCCN1C(=O)COc2cc(F)c(-c3nn4c(c3Cl)CCCC4)cc21 [Compound 32]
- Plant response rating, Wild oat (wild oat; Rate 10 g/ha): 4
- Plant response rating, Wild oat (wild oat; Rate 50 g/ha): 4
- Plant response rating, Cocklebur (cocklebur; POSTEMERGENCE, Rate 10 g/ha): 9
- Plant response rating (0 to 10 scale), Cocklebur (cocklebur; POSTEMERGENCE, Rate 50 g/ha): 10
- Plant response rating, Cocklebur (cocklebur; PREEMERGENCE, Rate 10 g/ha): 0
- Plant response rating, Cocklebur (cocklebur; PREEMERGENCE, Rate 50 g/ha): 5
- Plant response rating, Blackgrass (blackgrass [1]; POSTEMERGENCE, Rate 10 g/ha): 4
- Plant response rating (0 to 10 scale), Blackgrass (blackgrass [1]; POSTEMERGENCE, Rate 50 g/ha): 5
- Plant response rating, Blackgrass (blackgrass [1]; PREEMERGENCE, Rate 10 g/ha): 5
- Plant response rating, Blackgrass (blackgrass [1]; PREEMERGENCE, Rate 50 g/ha): 5
- Plant response rating, Sugar beet (sugar beet; POSTEMERGENCE, Rate 10 g/ha): 10
- Plant response rating, Sugar beet (sugar beet; POSTEMERGENCE, Rate 50 g/ha): 10
- Plant response rating, Sugar beet (sugar beet; PREEMERGENCE, Rate 50 g/ha): 7
- Plant response rating, Blackgrass (blackgrass [2]; 62 g/ha, 0 to 100 scale): 50
- Plant response rating (0 to 100), Blackgrass (blackgrass [2]; Rate 1 g/ha): 10
- Plant response rating (0 to 100), Blackgrass (blackgrass [2]; Rate 4 g/ha): 30
- Plant response rating (0 to 100), Blackgrass (blackgrass [2]; Rate 16 g/ha): 30
- Plant response rating (0 to 100), Barnyardgrass (barnyardgrass; POSTEMERGENCE section, flood test, Rate 1 g/ha): 30
- Plant response rating (0 to 100), Barnyardgrass (barnyardgrass; Rate 4 g/ha, under POSTEMERGENCE head (flood test species)): 55
- Plant response rating (0 to 100), Barnyardgrass (barnyardgrass; Rate 16 g/ha, under POSTEMERGENCE head (flood test species)): 100
- Plant response rating, Barnyardgrass (barnyardgrass; flood test species listed under POSTEMERGENCE, 62 g/ha, 0 to 100 scale): 100
- Plant response rating Ryegrass (ryegrass; 62 g/ha, 0 to 100 scale): 40
- Plant response rating (0 to 100), Ryegrass (ryegrass; Rate 1 g/ha): 10
- Plant response rating (0 to 100), Ryegrass (ryegrass; Rate 4 g/ha): 20
- Plant response rating (0 to 100), Ryegrass (ryegrass; Rate 16 g/ha): 30
- Plant response rating, Cotton (cotton; 62 g/ha, 0 to 100 scale): 100
- Plant response rating (0 to 100), Cotton (cotton; Rate 1 g/ha): 95
- Plant response rating (0 to 100), Cotton (cotton; Rate 4 g/ha): 100
- Plant response rating (0 to 100), Cotton (cotton; Rate 16 g/ha): 100
- Plant response rating, Morningglory (morningglory; POSTEMERGENCE, Rate 10 g/ha): 10
- Plant response rating, Morningglory (morningglory; POSTEMERGENCE, Rate 50 g/ha): 10
- Plant response rating, Morningglory (morningglory; PREEMERGENCE, Rate 50 g/ha): 2
- Plant response rating, Bedstraw (bedstraw; Rate 10 g/ha, 0 to 10 scale): 8
- Plant response rating (0 to 10 scale), Bedstraw (bedstraw; Rate 50 g/ha): 10
- Plant response rating Pigweed (pigweed; 62 g/ha, 0 to 100 scale): 100
- Plant response rating (0 to 100), Pigweed (pigweed; Rate 1 g/ha): 95
- Plant response rating (0 to 100), Pigweed (pigweed; Rate 4 g/ha): 100
- Plant response rating (0 to 100), Pigweed (pigweed; Rate 16 g/ha): 100
- Plant response rating, S. Sandbur (sandbur; POSTEMERGENCE, Rate 125 g/ha): 0
- Plant response rating, S. Sandbur (sandbur; POSTEMERGENCE, Rate 250 g/ha): 0
- Plant response rating, S. Sandbur (sandbur; PREEMERGENCE, Rate 125 g/ha): 0
- Plant response rating, S. Sandbur (sandbur; PREEMERGENCE, Rate 250 g/ha): 0
- Plant response rating, Wheat (wheat; 62 g/ha, 0 to 100 scale): 50
- Plant response rating (0 to 100), Wheat (wheat; Rate 1 g/ha): 10
- Plant response rating (0 to 100), Wheat (wheat; Rate 4 g/ha): 30
- Plant response rating (0 to 100), Wheat (wheat; Rate 16 g/ha): 30
